{"source": "patent US7262336B2", "about": "(priority 2000, dated 2007)", "format_in_all_cases": "in vivo, rat", "key": {"[1]": {"test_system": "normal Sprague-Dawley rats", "assay": "DOI lethality in normal rats (separate experiments)", "conditions": "doses as high as 30 mg/kg", "description": "Higher doses of DOI (3-10 mg/kg) were required to produce similar effects in line 11 (data not shown)."}, "[2]": {"test_system": "Gαq mutant transgenic rats", "assay": "DOI induced headshakes and lethality in Gq transgenic rats", "conditions": "for number of headshakes: 0.1 mg/kg", "description": "(§1) In general, 10 male and 10 female heterozygotes of each line were compared with a similar number of wild-type littermate controls. Testing began at 7-8 weeks of age. Subjects were individually housed in hanging metal mesh cages with ad libitum access to food and water under a 12 h light/dark cycle. For Lines 76, 67, and 11 the subjects were maintained on powdered rodent chow for the duration of the study. Subjects from Lines 58 and 75 were adapted to powdered chow for the feeding studies and then maintained on that chow for the remainder of the study. Subjects were evaluated in a series of tests outlined below over a period of approximately 12 weeks.\nWild type and transgenic rats were injected ip with either vehicle or DOI (0.001, 0.01, 0.1, 1.0 mg/kg) and were then housed singly in clear Plexiglas chambers (10″×18″×8″) for observational studies. A trained observer counted the number of headshakes for each rat during 2 observation periods (0-30 min; 45-75 min).\nAssessing the effect of the RGS insensitive Gαq mutant transgene on receptors coupled via Gαq to the IP3 pathway in transgenic rats was an interest. 5-HT2A agonists produce large increases in headshakes in rats via this pathway. DOI (−1[2,5-dimethoxy-4-iodophenyl]-2-aminopropane) is a 5-HT2A receptor agonist, which increases headshakes in rats, and it has been used to investigate this pathway (Wettstein et al., 1999). DOI administration was used herein to determine if 5-HT2A agonist activity was modified in transgenic rats; results are shown in FIG. 27."}, "[3]": {"test_system": "Gαq mutant transgenic rats", "assay": "Stimulant-induced locomotor activity (d-amphetamine, phencyclidine) in Gq transgenic rats", "description": "as §1\nTo complement the observations of motor activity obtained using the open field test, heterozygotes and wildtype littermate controls were evaluated for spontaneous locomotor activity using an automated data collection system and a more extended test period. Data in this test was collected in multiple time bins over the test period allowing for some assessment of both the exploratory activity level in a novel environment as well as the rate of habituation to that environment. Having habituated the subjects, a stimulant was administered to determine the responsiveness of these subjects to the stimulant using locomotor activity as a measure. In this study we used an indirect-acting dopamine agonist, d-amphetamine, and a NMDA excitatory amino acid antagonist, phencyclidine, to induce locomotion. The ability of d-amphetamine to increase motor activity is dependent on dopaminergic neurotransmission in the striatum, in particular the nucleus accumbens, but can be influenced by other neurotransmitters. The ability of phencyclidine to induce locomotor activity is dependent on changes in both dopamine and glutatmate neurotransmission (Adams and Moghaddam, J. Neurosci. 1998, 18:5545-54). The differences in locomotor activity observed under spontaneous and stimulant-induced conditions in heterozygotes vs. wildtype littermate controls are summarized in FIGS. 15 and 16.\nSubjects were placed in activity monitors (Model RXYZCM16, Omnitech, Columbus, Ohio) equipped with infrared beams to detect movements on both the horizontal (16×16 in field) and vertical axes. The testing room was equipped with white noise. Following a 60 min habituation period during which activity was monitored for differences in spontaneous locomotor activity, each subject was treated with a dose of 1 mg/kg d-amphetamine ip and returned to the activity monitor. Activity induced by d-amphetamine was monitored for 2 h. On a separate occasion, these same subjects were placed in the activity monitors and allowed to habituate for 60 min. Following this re-habituation, each subject was treated with 10 mg/kg phencyclidine ip and monitored for activity for an additional 4 h. The doses of d-amphetamine and phencyclidine were selected based on other studies as doses that induce a hyperactive state in normal rats (see Adams and Moghaddam, supra; Krebs-Thomson et al., Fur. J. Pharmacol. 1998, 343:135-43). Data were analyzed using LSD following a 2-way ANOVA (transgene×time) with one repeated measure (time). Outcomes were determined significant at p<0.05."}, "[4]": {"test_system": "Gαq mutant transgenic rats", "assay": "Pilocarpine-induced cholinergic signs and convulsions in Gq transgenic rats", "description": "Muscarinic cholinergic agonists produce a series of cholinergic signs (chromodacryrhea, salivation, diarrhea, hypoactivity, tremors, foaming, convulsions and death) at high doses via a Gαq modulated pathway. Studies were conducted with the muscarinic agonist pilocarpine to determine if muscarinic agonist activity was modified in the transgenic rats (FIG. 28). Studies were conducted with the muscarinic agonist pilocarpine to determine if muscarinic agonist activity was modified by acute lithium (FIG. 29 or chronic lithium (FIG. 30). Both acute and chronic lithium potentiated the cholinergic signs produced by pilocarpine."}, "[5]": {"test_system": "Gαq mutant transgenic rats", "assay": "Food intake after RO 60-0175 in Gq transgenic rats vs wild-type littermates", "description": "as §1\nWild-type and transgenic rats were maintained on powdered chow in their home cages. Rats were fasted for 24 h prior to evaluation of food intake. Food intake was measured at 2, 4, and 24 h timepoints following ip injection of vehicle, 1, or 1.7 mg/kg RO 60-0175. Experimental sessions were generally conducted on Tues and Fri with 24 h fasts initiating on Mon and Thurs. […] 5-HT2C agonists decrease food intake via a Gαq modulated pathway. Studies using the selective 5-HT2C agonist RO 60-0175 were conducted to determine if 5-HT2C agonist activity was modified in transgenic rats.\nTo account for the baseline differences in food intake between wild-type and transgenic rats, the effects of RO 60-0175 were calculated as a percentage of the vehicle food intake. The effects of 1.7 mg/kg RO 60-0175 were greater in both males and females for transgenic heterozygotes for lines 75 and 67 (FIG. 7). The effects of 1.0 mg/kg RO 60-0175 were greater in males of line 67 as well (data not shown). […] There was no change in the effects of RO 60-0175 in rats from lines 58, 76, or 11."}}}
{"compound": "COc1cc(CC(C)N)c(OC)cc1I", "note": "(stereo not shown) [DOI, −1[2,5-dimethoxy-4-iodophenyl]-2-aminopropane]", "values": [{"measurement": "lethality", "setting": "[1]", "value": "did not result in lethality"}, {"measurement": "number of headshakes", "setting": "[2]; line 67 male transgenic heterozygote rats", "value": "trend toward increased headshakes"}, {"measurement": "number of headshakes", "setting": "[2]; line 75 male transgenic heterozygote rats", "value": "increased"}, {"measurement": "lethality", "setting": "[2]; 1 mg/kg, transgenic rats from lines 58, 75, 67 and 76", "value": "found dead within 24 hours"}, {"measurement": "5-HT2A Agonist (DOI) Induction of Head Shakes", "setting": "[2]; Gαq mutant Transgenics, cell wraps: 4 of 5 lines ↓ headshakes", "value": "4 of 5 lines ↓"}, {"measurement": "5-HT2A Agonist (DOI) Flattened Body Posture, Convulsions, Death", "setting": "[2]; Gαq mutant Transgenics, cell wraps: FBP, conv and death at 1.0 mg/kg, higher doses required for line 11", "value": "4 of 5 lines show FBP,"}, {"measurement": "doses required to produce similar effects (lethality)", "setting": "[2]; transgenic line 11", "value": "3 to 10", "unit": "mg/kg"}]}
{"compound": "c1ccc(C2(N3CCCCC3)CCCCC2)cc1", "note": "[PCP, phencyclidine]", "values": [{"measurement": "locomotor activity induced by phencyclidine, heterozygotes vs wildtype", "setting": "[3]; 10 mg/kg ip, Line 58 males, delayed in the onset", "value": "increase in locomotor activity"}, {"measurement": "phencyclidine locomotor activity, heterozygotes vs wildtype", "setting": "[3]; 10 mg/kg ip, Line 67 males", "value": "reduced"}, {"measurement": "locomotor activity induced by phencyclidine, heterozygotes vs wildtype", "setting": "[3]; 10 mg/kg ip, Line 76 females, Line 11 males and females, to a lesser degree Line 67 females", "value": "delayed hyperactivity"}, {"measurement": "phencyclidine-induced activity, heterozygotes vs wildtype", "setting": "[3]; 10 mg/kg ip, Line 76 male (p=0.07)", "value": "slight trend toward a similar reduction"}, {"measurement": "Noncompetitive NMDA antagonist (PCP) Locomotor Activity", "setting": "[3]; Gαq mutant Transgenics, cell wraps: 4 of 5 lines ↑ hyperactivity (delayed)", "value": "4 of 5 lines ↑"}]}
{"compound": "CC[C@@H]1C(=O)OC[C@@H]1Cc1cncn1C", "note": "[Pilocarpine, pilocarpine]", "values": [{"measurement": "Muscarinic Agonist (Pilocarpine) Convulsions, Death", "setting": "[4]; Gαq mutant Transgenics, cell wraps: 3 of 3 lines tested conv and death (10–30 mg/kg)", "value": "3 of 3 lines tested conv"}, {"measurement": "Muscarinic Agonist (Pilocarpine) Induction of cholinergic signs", "setting": "[4]; Gαq mutant Transgenics, cell wraps: 3 of 3 lines tested ↑ cholinergic signs", "value": "3 of 3 lines tested ↑"}, {"measurement": "sensitivity of the transgenic rats to the muscarinic agonist", "setting": "[4]; transgenic rats", "value": "increased sensitivity"}]}
{"compound": "C[C@H](N)Cn1ccc2cc(F)c(Cl)cc21", "note": "[RO 60-0175]", "values": [{"measurement": "effect on food intake as percentage of vehicle food intake, transgenic vs wild-type", "setting": "[5]; 1.0 mg/kg ip, line 75 females", "value": "greater in wildtype than in transgenic rats"}, {"measurement": "effect on food intake as percentage of vehicle food intake, transgenic heterozygotes vs wild-type", "setting": "[5]; 1.0 mg/kg ip, males of line 67", "value": "greater"}, {"measurement": "effect on food intake as percentage of vehicle food intake, transgenic heterozygotes vs wild-type", "setting": "[5]; 1.7 mg/kg ip, males and females, lines 75 and 67", "value": "greater"}, {"measurement": "5-HT2C Agonist (RO60-0175) Inhibition of Food Intake", "setting": "[5]; Gαq mutant Transgenics, cell wraps: 2 of 5 lines ↑sensitivity to RO 60-0175", "value": "2 of 5 lines"}, {"measurement": "change in effect on food intake, transgenic vs wild-type", "setting": "[5]; lines 58, 76, or 11", "value": "no change"}]}
{"compound": "C[C@H](N)Cc1ccccc1", "note": "[d-amph, d-amphetamine]", "values": [{"measurement": "amphetamine-induced locomotor activity, heterozygotes vs wildtype", "setting": "[3]; 1 mg/kg ip, males of Lines 58, 75, 67, 11 and females of Line 67, 76, 11, but not males of Line 76", "value": "reduced amphetamine-induced locomotor activity"}, {"measurement": "Indirect DA agonist (d-amph) Locomotor Activity", "setting": "[3]; Gαq mutant Transgenics, cell wraps: All lines ↓ hyperactivity", "value": "All lines ↓"}]}
